Patent US20260224758A1, “ALPHA-SYNUCLEIN BINDERS AND METHODS OF USE” (Merck Sharp & Dohme LLC, priority 2023, published 2026)
Like-named read-outs stand apart in the source and are kept apart here.

Tests used:
[1] = biological target: aggregated beta amyloid in AD tissue (Homo sapiens, UniProt P05067); test: Competitive radioligand binding to pathological aggregated beta amyloid in AD tissue (Assay 2), displacement of [^3H]-105; conditions: Aβ-rich AD frontal cortex homogenate, [^3H]-105, Kd 11.0 nM
Chain of aggregated beta amyloid in AD tissue (P05067 672-711 limits assumed): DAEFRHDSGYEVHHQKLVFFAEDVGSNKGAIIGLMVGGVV
Description: Frozen human brain samples of Alzheimer's disease (AD) were purchased from Analytic Biological Services Inc. The samples were post-mortem tissue from donors with clinical diagnosis of AD and much of the white matter was dissected out of the frontal cortex in order to enrich the tissue preparations for gray matter. Brain homogenates of gray matter enriched frontal cortex were prepared by homogenizing the tissue in ice cold Phosphate Buffered Saline (PBS), pH 7.4 at 80 mg wet weight tissue per 1 ml for 45 seconds at 4° C., on setting 16 of Polytron. The homogenate was further diluted with ice cold PBS to 30 mg wet weight tissue per 1 ml and homogenized for an additional minute as described above. Homogenates were aliquoted in 5 ml/tube and stored at −70° C. until use.
Radioligand [^3H]-105, prepared as described in ACS Med. Chem. Lett., Vol. 2, pages 498-502, was used in this assay.
For Assay 2 unlabeled test compounds were dissolved in DMSO at 10 mM. Dilutions of tests compounds to various concentrations were made in 100% DMSO at 1000× final assay concentration and 0.225 μl aliquots were dispensed into assay plates. Brain homogenates were diluted to 0.5 mg/ml from original 30 mg/ml volume in Assay Buffer, and 200 μl were added to the assay plate for a final concentration of 100 ug wet weight/assay well. [^3H]-105 was prepared at 10× final concentration in Assay Buffer plus 20% DMSO and 25 μl was added to the assay plate for final assay concentration of 3.0 nM. The plates were incubated at 37° C. for 90 minutes. Unbound and bound ligand were separated by filtration of bound onto GF/B filter plates (pre-treated for 30 min with 0.1% PEI) using a Packard Filtermate and washing away unbound with 2.5 mil ice cold 5 mM Tris at pH 7.4. Filter plates were dried for 1 hr at 57° C. and 50 μl Microscint was added to each well of the plate. The plates were counted for ^3H cpm for 1 min per well using PerkinElmer TopCount.

[2] = biological target: T1, triton-extracted alpha-synuclein from PD Tissue (Homo sapiens, UniProt P37840); test: Alpha-synuclein tissue homogenate binding assay (Assay 1), displacement of [^3H]-1000; conditions: for Selectivity ratio (Assay 2/Assay 1): Aβ Tissue Ki / α-synuclein Tissue Ki; for Ki: read-out: α-synuclein Tissue Ki (Assay 1)
T1 construct: tissue Analytic Biological Services Inc; host or cells: human PD temporal cortex grey matter, Triton X-100 insoluble pellet

[3] = insoluble fraction of PD brain homogenate, [^3H]-1000 3.0 nM, Kd 0.90 nM

Row | Structure (SMILES) | Ki [1] [nM] | Selectivity ratio (Assay 2/Assay 1) [2] | Ki [2, 3] [nM] | Ki [2] [nM]
1 | FCCOC[C@H]1CN(c2ncc(/C=C/c3ccc(-c4cnco4)nc3)cn2)CCN1c1ncncn1 [Example 41, (R,E)-5-(5-(2-(2-(3-((2-fluoroethoxy)methyl)-4-(1,3,5-triazin-2-yl)piperazin-1-yl)pyrimidin-5-yl)vinyl)pyridin-2-yl)oxazole] | ≥ 1200 | 1500 | 0.8 | –
2 | FCCOC[C@H]1CN(c2ncc(/C=C/c3ccc(-c4cnco4)nc3)cn2)CCN1c1ccncn1 [Example 42, (R,E)-5-(5-(2-(2-(3-((2-fluoroethoxy)methyl)-4-(pyrimidin-4-yl)piperazin-1-yl)pyrimidin-5-yl)vinyl)pyridin-2-yl)oxazole] | ≥ 1200 | 1538 | 0.78 | –
3 | Cn1cc(-c2ncc(C#Cc3cnc(N4CCN(c5ncncn5)[C@@H](COCCF)C4)nc3)cn2)cn1 [Example 44, (R)-2-(2-((2-fluoroethoxy)methyl)-4-(5-((2-(1-methyl-1H-pyrazol-4-yl)pyrimidin-5-yl)ethynyl)pyrimidin-2-yl)piperazin-1-yl)-1,3,5-triazine] | ≥ 1200 | 2105 | 0.57 | –
4 | COC[C@H]1CN(c2ncc(C#Cc3ccc(-n4cnnc4)nc3)cn2)CCN1c1cc(F)ncn1 [Example 45, (R)-5-((6-(4H-1,2,4-triazol-4-yl)pyridin-3-yl)ethynyl)-2-(4-(6-fluoropyrimidin-4-yl)-3-(methoxymethyl)piperazin-1-yl)pyrimidine] | ≥ 1200 | 589 | 2.04 | –
5 | COC[C@H]1CN(c2ncc(C#Cc3cnc(-c4cnn(CCF)c4)nc3)cn2)CCN1c1ncncn1 [Example 46, (R)-2-(4-(5-((2-(1-(2-fluoroethyl)-1H-pyrazol-4-yl)pyrimidin-5-yl)ethynyl)pyrimidin-2-yl)-2-(methoxymethyl)piperazin-1-yl)-1,3,5-triazine] | ≥ 1200 | 929 | 1.29 | –
6 | Cn1cc(-c2ccc(C#Cc3cnc(N4CCN(c5ncncn5)[C@@H](COCCF)C4)nc3)cn2)cn1 [Example 50, (R)-2-(2-((2-fluoroethoxy)methyl)-4-(5-((6-(1-methyl-1H-pyrazol-4-yl)pyridin-3-yl)ethynyl)pyrimidin-2-yl)piperazin-1-yl)-1,3,5-triazine] | ≥ 1200 | 2673 | 0.449 | –
7 | Cn1cc(-c2ncc(C#Cc3cnc(N4CCN(c5ncccn5)[C@@H](COCCF)C4)nc3)cn2)cn1 [Example 51, (R)-2-(3-((2-fluoroethoxy)methyl)-4-(pyrimidin-2-yl)piperazin-1-yl)-5-((2-(1-methyl-1H-pyrazol-4-yl)pyrimidin-5-yl)ethynyl)pyrimidine] | ≥ 1200 | 654 | 1.83 | –
8 | Cn1cc(-c2ncc(C#Cc3cnc(N4CCN(c5ncccn5)[C@@H](COCCOCCF)C4)nc3)cn2)cn1 [Example 52, (R)-2-(3-((2-(2-fluoroethoxy)ethoxy)methyl)-4-(pyrimidin-2-yl)piperazin-1-yl)-5-((2-(1-methyl-1H-pyrazol-4-yl)pyrimidin-5-yl)ethynyl)pyrimidine] | ≥ 1200 | 857 | – | 1.4
9 | COC[C@H]1CN(c2cnc(C#Cc3ccc(-n4ccnc4)nc3)c(F)n2)CCN1c1ncccn1 [Example 57, (R)-2-(4-(5-((6-(1H-imidazol-1-yl)pyridin-3-yl)ethynyl)-6-fluoropyrazin-2-yl)-2-(methoxymethyl)piperazin-1-yl)pyrimidine] | 32 | 7 | 4.41 | –
10 | COC[C@H]1CN(c2ncc(C#Cc3ccc(-n4cnnc4F)nc3)cn2)CCN1c1ncccn1 [Example 59, (R)-5-((6-(3-fluoro-4H-1,2,4-triazol-4-yl)pyridin-3-yl)ethynyl)-2-(3-(methoxymethyl)-4-(pyrimidin-2-yl)piperazin-1-yl)pyrimidine] | ≥ 1200 | 237 | 5.06 | –
11 | COC[C@H]1CN(c2ncc(C#Cc3ccc(-n4ccnc4)nc3)cn2)CCN1c1nccc(F)n1 [Example 60, (R)-2-(4-(5-((6-(1H-imidazol-1-yl)pyridin-3-yl)ethynyl)pyrimidin-2-yl)-2-(methoxymethyl)piperazin-1-yl)-4-fluoropyrimidine] | ≥ 1200 | 538 | 2.23 | –
12 | COC[C@H]1CN(c2ncc(C#Cc3ccc(-n4ccnc4)nc3)cn2)CCN1c1ccnc(F)n1 [Example 61, (R)-4-(4-(5-((6-(1H-imidazol-1-yl)pyridin-3-yl)ethynyl)pyrimidin-2-yl)-2-(methoxymethyl)piperazin-1-yl)-2-fluoropyrimidine] | ≥ 1200 | 805 | 1.49 | –
13 | FCCOC[C@@H]1CN(c2ncc(C#Cc3ccc(-c4cnco4)nc3)cn2)CCN1c1ncncn1 [Example 62, (S)-5-(5-((2-(3-((2-fluoroethoxy)methyl)-4-(1,3,5-triazin-2-yl)piperazin-1-yl)pyrimidin-5-yl)ethynyl)pyridin-2-yl)oxazole] | ≥ 1200 | 811 | 1.48 | –
14 | OCC(F)COC[C@H]1CN(c2ncc(C#Cc3ccc(-n4ccnc4)nc3)cn2)CCN1c1ncccn1 (stereo partly drawn) [Example 63, 3-(((R)-4-(5-((6-(1H-imidazol-1-yl)pyridin-3-yl)ethynyl)pyrimidin-2-yl)-1-(pyrimidin-2-yl)piperazin-2-yl)methoxy)-2-fluoropropan-1-ol] | ≥ 1200 | 1314 | 0.913 | –
15 | COC[C@H]1CN(c2ncc(C#Cc3ccc(-c4cnco4)nc3)cn2)CCN1c1ccnc(F)c1 [Example 64, (R)-5-(5-((2-(4-(2-fluoropyridin-4-yl)-3-(methoxymethyl)piperazin-1-yl)pyrimidin-5-yl)ethynyl)pyridin-2-yl)oxazole] | ≥ 1200 | 442 | 2.71 | –
16 | CNCC1CN(c2cc(F)ncn2)CCN1c1ncc(C#Cc2ccc(-c3cnco3)nc2)cn1 (stereo not drawn) [Example 65, 1-(4-(6-fluoropyrimidin-4-yl)-1-(5-((6-(oxazol-5-yl)pyridin-3-yl)ethynyl)pyrimidin-2-yl)piperazin-2-yl)-N-methylmethanamine] | ≥ 1200 | 1093 | 1.1 | –
17 | COC[C@H]1CN(c2ncc(C#Cc3ccc(-c4cnco4)nc3)cn2)CCN1c1ncc(OCCF)cn1 [Example 66, (R)-5-(5-((2-(4-(5-(2-fluoroethoxy)pyrimidin-2-yl)-3-(methoxymethyl)piperazin-1-yl)pyrimidin-5-yl)ethynyl)pyridin-2-yl)oxazole] | ≥ 1200 | 706 | 1.7 | –
18 | OC(CF)COC[C@H]1CN(c2ncc(C#Cc3ccc(-c4cnco4)nc3)cn2)CCN1c1ncncn1 (stereo partly drawn) [Example 67, 1-fluoro-3-(((R)-4-(5-((6-(oxazol-5-yl)pyridin-3-yl)ethynyl)pyrimidin-2-yl)-1-(1,3,5-triazin-2-yl)piperazin-2-yl)methoxy)propan-2-ol] | ≥ 1200 | 798 | 1.5 | –
19 | COC[C@H]1CN(c2ncc(C#Cc3ccc(N4CC(F)C4)nc3)cn2)CCN1c1ncccn1 [Example 68, (R)-5-((6-(3-fluoroazetidin-1-yl)pyridin-3-yl)ethynyl)-2-(3-(methoxymethyl)-4-(pyrimidin-2-yl)piperazin-1-yl)pyrimidine] | ≥ 1200 | 469 | 2.56 | –
20 | COC[C@H]1CN(c2ncc(C#Cc3ccc(-n4ccnc4)nc3)cn2)CCN1c1cncc(F)n1 [Example 69, (R)-5-((6-(1H-imidazol-1-yl)pyridin-3-yl)ethynyl)-2-(4-(6-fluoropyrazin-2-yl)-3-(methoxymethyl)piperazin-1-yl)pyrimidine] | ≥ 1200 | 183 | 6.57 | –
21 | FCCOC[C@H]1CN(c2ncc(C#Cc3ccc(-n4cnnc4)nc3)cn2)CCN1c1ncncn1 [Example 70, (R)-2-(4-(5-((6-(4H-1,2,4-triazol-4-yl)pyridin-3-yl)ethynyl)pyrimidin-2-yl)-2-((2-fluoroethoxy)methyl)piperazin-1-yl)-1,3,5-triazine] | ≥ 1200 | 472 | 2.54 | –
22 | FCCOC[C@H]1CN(c2ncc(C#Cc3ccc(-n4cnnc4)nc3)cn2)CCN1c1ncccn1 [Example 71, (R)-5-((6-(4H-1,2,4-triazol-4-yl)pyridin-3-yl)ethynyl)-2-(3-((2-fluoroethoxy)methyl)-4-(pyrimidin-2-yl)piperazin-1-yl)pyrimidine] | ≥ 1200 | 293 | 4.09 | –
23 | COC[C@H]1CN(c2ncc(C#Cc3ccc(N4CC[C@H](F)C4)nc3)cn2)CCN1c1ncccn1 [Example 72, 5-((6-((S)-3-fluoropyrrolidin-1-yl)pyridin-3-yl)ethynyl)-2-((R)-3-(methoxymethyl)-4-(pyrimidin-2-yl)piperazin-1-yl)pyrimidine] | ≥ 1200 | 617 | 1.94 | –
24 | FCCCOC[C@H]1CN(c2ncc(C#Cc3ccc(-c4cnco4)nc3)cn2)CCN1c1ncncn1 [Example 74, (R)-5-(5-((2-(3-((3-fluoropropoxy)methyl)-4-(1,3,5-triazin-2-yl)piperazin-1-yl)pyrimidin-5-yl)ethynyl)pyridin-2-yl)oxazole] | ≥ 1200 | 618 | 1.94 | –
25 | FCCOC[C@H]1CN(c2ncc(C#Cc3ccc(N4CCn5cnnc5C4)nc3)cn2)CCN1c1ncncn1 [Example 75, (R)-7-(5-((2-(3-((2-fluoroethoxy)methyl)-4-(1,3,5-triazin-2-yl)piperazin-1-yl)pyrimidin-5-yl)ethynyl)pyridin-2-yl)-5,6,7,8-tetrahydro-[1,2,4]triazolo[4,3-a]pyrazine] | ≥ 1200 | 1312 | 0.915 | –
